# Assay results reported in a melting point compilation (Tetko et al.; mined from patent text by program, amines drawn as free bases though some values may be those of a salt).
row,Compound,melting point
1,COCCn1nc(-c2ccc(C(C)(C)C)cc2)cc1C(=O)NCc1ccc(OC(C)(C)C(=O)O)c(C)c1,112 °C
2,COc1ccc(C=Cc2ccc([N+](=O)[O-])cc2C(F)(F)F)cc1,120 to 123 °C
3,COc1ccc2c(c1)C(N1CCN(C)CC1)c1ccccc1C=C2 (configuration not stated),118 °C
4,Cc1cccc(-c2nc(C(C)C)[nH]c2-c2cccc(-c3ccc(S(N)(=O)=O)cc3)c2)n1,255 to 258 °C
5,COc1ccc2c(c1)CCC1CC(=O)NN=C21 (configuration not stated),198 °C
6,CN1Cc2c(-c3nc(CCl)cs3)ncn2-c2ccccc2C1=O,248 to 249 °C
7,COc1ccc(C2=NN(c3ccc(C4=NNC(=O)CC4C)cc3)C(=O)C3CCCCC23)cc1OC1CCCC1 (configuration not stated),134 to 141 °C
8,COc1ccc(-c2cc(Nc3c(C)cc(C)cc3C)nc(C)n2)cc1OC,168 to 170 °C
9,O=C(O)c1ncc(Cl)nc1Cl,139 to 141 °C
10,CCCOc1cccc(-c2ccc3c(c2)C=C(C(=O)Nc2ccc(CN(C)C4CCOCC4)cc2)CCS3(=O)=O)c1,219 to 221 °C
11,COc1ccccc1NC(=O)c1ccc(C#N)cc1,158 to 160 °C
12,Cn1ccc2cc(-c3csc4ncnc(NCc5ccccn5)c34)ccc21,184 to 185 °C
13,Cn1nc(C(F)(F)F)c(CSC2=NOC(C)(C)C2)c1OC(F)F,39 to 40 °C
14,COC(=O)C1CC1c1ccc(O)cc1 (configuration not stated),69 to 71 °C
15,O=C(c1ccc(F)cc1)c1c(-c2ccc(OCCN3CCCC3)cc2)sc2c(O)cccc12,138 to 142 °C
16,Cc1cccc(C)c1OP(=O)(c1ccccc1)c1cc(O)ccc1O (configuration not stated),172 °C
17,COc1ccc(-c2cc(CCCN3CCN(C)CC3)c(=O)n(Cc3ccc(F)cc3)n2)cc1F,108 to 109 °C
18,O=C1c2ccccc2C(O)N1c1cccc(C(F)(F)F)c1 (configuration not stated),202 °C
19,O=c1ccoc2c1ccc1ncccc12,146 to 147 °C

row,Compound,melting point
1,CN(C)c1ccc(NC(=O)Cn2c(-c3ccc(Cl)cc3)nc3cccnc32)cc1,245 to 246 °C
2,Cc1ncsc1C(=O)Nc1ccc(-n2nc(C3CC3)cc2C2CC2)c(F)c1,102 to 106 °C
3,COc1cc(C(C)C)c2c(c1)S(=O)(=O)N(COc1cc(C(F)(F)F)nn1-c1ccccn1)C2=O,132 to 133 °C
4,CC(=O)NCC1CC(c2ccc(-n3ccnc3)c(F)c2)=NO1 (configuration not stated),155 to 156 °C
5,CCCCOc1c(CNC(=O)OC(C)(C)C)n(CC(C)C)c(=O)c2ccc(-c3nc(C(N)=O)cs3)cc12,195 to 196 °C
6,CCN(CC)CCCC(=O)c1ccc2c(c1)Cc1cc(C(=O)CCCN(CC)CC)ccc1-2,79 to 81 °C
7,CCCc1c(C(C)C)nc(C(C)C)c(CO)c1-c1ccc(F)cc1O,138 to 141 °C
8,CC(C)(C)OC(=O)NCC(COS(C)(=O)=O)NC(=O)OC(C)(C)C (configuration not stated),94 to 96 °C
9,CC(C)(C)C(NC(=O)Cc1ccc2cccnc2c1)NC(=NC#N)Nc1cccc2ncccc12 (configuration not stated),147 to 148 °C
10,NC1CCc2ccccc2N(CC(=O)OCc2ccccc2)C1=O (configuration not stated),105 to 107 °C
11,Cn1cc2c3c(c(Cl)cc2n1)CCC3=O,207 to 209 °C
12,Cc1ccc2c(c1)c1c(n2Cc2ccccc2)CCCC1C(=O)O (configuration not stated),200 to 208 °C
13,O=S(=O)(C(=CNc1ccccc1C(F)(F)F)S(=O)(=O)c1ccc(Cl)cc1)c1ccc(Cl)cc1,169 to 171 °C
14,Cc1cc(C#N)cnc1C(=O)Nc1ccc(F)c([C@]2(C)CO[C@@](C)(C(F)(F)F)C(N)=N2)c1,101 to 102 °C
15,Cc1cc(NC(=O)C(=O)N2C(C)CCCC2C)cc(C)c1S(=O)(=O)C[N+](=O)[O-] (configuration not stated),192 to 193 °C
16,Cc1nn(-c2ccc(Cl)cc2)cc1C(=O)N(CC(=O)O)c1ccc(OCC(C)(C)C)c(C#N)c1,186 to 189 °C
17,CCCc1c(OCCCCc2nc3ccc(C(=O)O)cc3[nH]2)ccc(C(C)=O)c1O,98 to 100 °C
18,CC1(C)C2CC[C@]1(C)C(=O)C(C(=O)Nc1ccc(F)c(Cl)c1)C2=O (some centres not stated),87 to 89 °C
19,CCCC1(C(=O)O)c2ccccc2-c2ccccc21,120 to 122 °C

row,Compound,melting point
1,O=C(c1ccccc1)c1cccc2c(Cl)c[nH]c12,145 to 149 °C
2,CNC(=O)c1cc(CN2C(=O)C3(COc4cc5c(cc43)OCO5)c3ccccc32)oc1C(F)(F)F (configuration not stated),202 to 203 °C
3,CCC(CC)(CCCS(N)(=O)=O)COc1nn2ncnc2cc1C,157 to 158 °C
4,O=C(NCNc1c(Nc2cccnc2)c(=O)c1=O)c1ccc(Cl)cc1,174 to 176 °C
5,CNC(=S)Nc1cc(SC)ccc1N1CCOCC1,132 to 133 °C
6,O=C(O)c1cc(-c2ccc(Cl)cc2)nn1Cc1ccc(Cl)cc1Cl,218 °C
7,CCC(C)=NOC(=NC1CCCCC1)N(C(=O)c1ccccc1)C1CCCCC1,74 to 78 °C
8,O=C(OCCn1cnc2c(Cl)nc3ccccc3c21)c1ccccc1,186 °C
9,CCOC(=O)c1[nH]c(CC)c(CC)c1CC,47 to 49 °C
10,COc1cc2c(cc1OC)N(C)C(=O)CN=C2c1cccc(CO)c1,143 to 146 °C
11,Cn1cc(-c2ccccc2)c(=O)c(-c2cccc(F)c2)c1,134 °C
12,Nc1ccc2ccc(Oc3cccc(F)c3)nc2n1,165 °C
13,O=C(NCCC[C@H]1OC[C@H](c2cccc3cc(OCC4CC4)ccc32)CO1)Oc1ccc(Cl)cc1,159 to 162 °C
14,CC(=O)Nc1ccc(NC(=O)C=C2CC(C(=O)OCc3ccccc3)Nc3cc(Cl)cc(Cl)c32)cc1 (racemic),275 °C
15,CC(=O)C(C#N)c1cc(Cl)cc(Cl)c1Cl (configuration not stated),134 to 135 °C
16,O=C(Nc1ccc(C(=O)Nc2nnc(-c3cc(Cl)cc(Cl)c3O)s2)cc1)c1ccccc1,301 °C
17,CCOC(=O)C=Cc1ccc(-n2ccnc2)cc1,96 to 97.5 °C
18,CC(c1ccccc1)N1CC(CCl)C(c2ccccc2)(c2ccccc2)C1=O (configuration not stated),115 to 120 °C

# Next, values leading:
row,melting point,Compound
1,133 to 135 °C,O[C@@H](c1c[nH]nc1-c1ccccc1)[C@H](CCN1CCC(O)(c2ccccc2)CC1)c1ccc(Cl)c(Cl)c1 (racemic)
2,185 to 187 °C,O=C(O)CC(O)(Cn1cncn1)c1ccc(F)cc1F (configuration not stated)
3,74 to 75 °C,O=C(C#Cc1ccncc1)c1ccccc1
4,170 to 172 °C,Cc1onc(-c2ccccc2)c1-c1[nH]c2ccccc2c1CCC(=O)O
5,70 to 71 °C,COC(=O)[C@]1(F)[C@@H]2[C@H]1C(=O)C[C@H]2O[Si](C)(C)C(C)(C)C
6,84 °C,COc1ccc(C2CCc3cc(OC)ccc3C2CO)cc1 (configuration not stated)
7,116 °C,CCCCCCCCCCCCCCN(C(=O)CCCCCCCCCCC)C1(N)OC(CO)C(O)C(O)C1C(=O)C(N)C(=O)CNC (configuration not stated)
8,89 °C,CC(=O)Nc1ccccc1SCc1ncon1
9,223 to 226 °C,COc1ccc(-c2cnn3c(N)c(-c4cccc(Cl)c4)c(C)nc23)cc1OC
10,196 to 198 °C,Cc1cnc(CO)cc1C(c1cc(F)ccc1F)S(=O)(=O)c1ccc(Cl)cc1 (configuration not stated)
11,42 to 46 °C,CCCCCCCCCCCCCCCCCCN(CCCCCCCCCCCCCCCCCC)CCCNC=O
12,186 °C,CC(=O)N[C@@H](Cc1cscn1)C(=O)O
13,93 to 94 °C,CN(C)CCOC(=O)C(=O)c1ccc(OCCOc2ccc3ccccc3c2)cc1
14,136 °C,COCCOc1ccc(/C=C/C(=O)NS(=O)(=O)c2ccccc2)c(Oc2ncc(C(F)(F)F)cc2Cl)c1
15,134 to 136 °C,Cc1nc(N2CCN(CC3CCCCC3)C2=O)sc1C(=O)NCc1cccnc1
16,93 to 94 °C,O=[N+]([O-])c1cnccc1Oc1ccc(Cl)cc1
17,142 to 143 °C,COc1cnccc1NC(=O)Nc1ccc(N2CCN(C(=O)Nc3ccc(OCCO)cc3C(F)(F)F)CC2)cc1
18,294 to 296 °C,CCOC(=O)c1nnc2ccc([N+](=O)[O-])cc2c1O
19,84 to 87 °C,C=CS(=O)(=O)N1CCC[C@H]1C(=O)OC(C)(C)C
20,231 to 232 °C,Cc1ccc(-c2c(C(=O)Nc3nccs3)nc(-c3cccc4ccccc34)n2Cc2ccccc2)cc1
21,118 to 121 °C,Cc1csc(-c2nnc(NC(C)c3ccccc3)c3ccccc23)c1 (configuration not stated)

row,melting point,Compound
1,144 °C,CCCc1nc(SC(F)F)c(C(=O)O)n1Cc1ccc(-c2ccccc2S(=O)(=O)NC(=O)NCc2cccc3ccccc23)cc1
2,110 to 111 °C,COc1cc(OC)cc(C(=O)NCCCSc2ccncc2)c1
3,47 to 48 °C,CCOC(=O)CC1CCN(C(=O)c2ccccc2)CC1
4,150 to 153 °C,COc1cc2c(cc1Cl)CCOC2c1ccc([N+](=O)[O-])cc1 (configuration not stated)
5,263 to 265 °C,CN1COc2cc3c4c(cccc4c21)C(=O)N(O)C3=O
6,135 to 137 °C,Cc1cc(-c2ccco2)ccc1C(=O)CC(=O)C(F)(F)F
7,122 to 123 °C,CCOc1ccc(-c2nc(C(O)c3ccc(OC)c(OC)c3)cs2)cc1OCC (configuration not stated)
8,98 °C,COc1cc(Nc2ncc(C#N)c(-c3ccccc3)n2)cc(OC)c1OC
9,238 to 240 °C,[N-]=[N+]=Nc1cc(=O)n(-c2ccccc2)nc1C1=NCCN1
10,125 to 126 °C,CCOC(=O)c1c(CCl)nc2ccc(C)cc2c1-c1ccc(OC)c(OC)c1
11,106 to 107 °C,CCN(CC)CCn1sc2nc(-c3ccccc3)ncc2c1=O
12,158 to 159 °C,COc1ccc(-c2sc3c(c2C)c(=O)c(COC(C)=O)cn3Cc2ccccc2OC)cc1
13,142 to 145 °C,COC(=O)c1ccc2cc(OC)c(OC)cc2c1-c1ccnc(Cl)c1
14,165 to 166 °C,CC(C)(C)c1ccc(N2CCOCC2)c(N)c1
15,214 to 216 °C,Cc1nc2c(N)nc3cc(OCCC4CCN(C(=O)NC5CCCCC5)CC4)ccc3c2n1CC(C)C
16,75 to 76 °C,CON=C(OCC(=O)OC)C(Cl)=Cc1cc(-n2ncc(C(F)(F)F)c(C)c2=O)c(F)cc1Cl
17,58 to 60 °C,CC(=O)c1ccc2c(c1)CCc1ccccc1-2
18,94 to 96 °C,CC(=O)Oc1ccc(OC(C)=O)c(-c2ccc(C)cc2)c1
19,> 280 °C,NC(=O)c1c(I)cc(I)c(CCC(=O)O)c1I
20,92 °C,CC(=O)OC1COC(Br)C(OC(C)=O)C1OC(C)=O (configuration not stated)
